Source: US12679878B2, “CRF2 receptor agonists and their use in therapy” (SANOFI, priority 2020, dated 2026)
≈ marks a conversion by molar mass, not a printed value. Read-outs that look alike come from different tables or passages of the source. One block for each molecule: values may come before it. Starred links: 1 amine or outer side, 2 acyl side, 3 side chain; linkers in the order of their positions; H or OH if unused. Non-standard residues stand in square brackets, D forms with d. Residues, ends and D or L forms follow the SMILES beside them. Groups on a side chain read outwards from the residue. *: point of attachment. C16 diacid = O=C(O)CCCCCCCCCCCCCCC(=O)*; γGlu = O=C(O)[C@H](CCC(=O)[*:2])N[*:1]; Palmitoyl = CCCCCCCCCCCCCCCC(=O)*; Aib = CC(C)(N)C(=O)O

How the values were obtained:
CRF2R = molecular target: T1, CRF2R (Homo sapiens, UniProt Q13324); test: EC50 [nM] CRF2R
T1 construct: expressed in transfected cells; host or cells: TeloHEAC
Source text: Table printed on a drawing sheet, Fig. 3
Head of the field: EC50 [nM] CRF2R
The patent's description of the figure: FIG. 3: Representative sequences from peptides according to the invention with an optimized stability profile, wherein K[sema] stands for K[gGlu-C(O)(CH2)14CH3]
First copying reader's note: Second half (positions 13-38, C-term and activity) of the first table; the rows follow the same order, so the four rows of Peptide Seq. 1 are Patent Sequence N° 130, 171, 172 and 173.
Where the first naming reader finds the target: head: EC50 [nM] CRF2R

[1] = In vitro plasma stability, human plasma (Example 19.11); format: in vitro ADME; set-up: dose or concentration left out as unconfirmed; details: 37° C.
Procedure: (§1) In vitro plasma metabolic stability was studied in male Sprague Dawley rats and human. Test compound were incubated […] for 2 hours at 37° C. At each time point (0, 0.25, 1 and 2 h), samples were prepared for analysis by means of a single step protein precipitation technique by adding 150 μL of ethanol, 0.1% formic acid to 50 μL aliquots of plasma. Samples were mixed by vortex for homogeneity and then subjected to centrifugation at 14000 rpm for 15 min. The supernatant (100 μL) was collected, diluted with 100 μL of water, 0.1% formic acid and analyzed by LC-HRMS (TripleTOF 6600+, AB Sciex). For each test compound, the area ratios at each time point were compared to the 0 h area ratio and converted to a percentage remaining.

human CRF2α receptor = molecular target: T2, human CRF2α receptor (Homo sapiens, UniProt Q13324); test: cAMP agonism at human CRF2α receptor in TeloHEAC cells, FA modified peptides (Example 19.9); format: cell-based; details: 0% HSA, relative to urocortin 2
T2 construct: expressed in transfected cells; host or cells: TeloHEAC
T2 sequence (Q13324 1-411): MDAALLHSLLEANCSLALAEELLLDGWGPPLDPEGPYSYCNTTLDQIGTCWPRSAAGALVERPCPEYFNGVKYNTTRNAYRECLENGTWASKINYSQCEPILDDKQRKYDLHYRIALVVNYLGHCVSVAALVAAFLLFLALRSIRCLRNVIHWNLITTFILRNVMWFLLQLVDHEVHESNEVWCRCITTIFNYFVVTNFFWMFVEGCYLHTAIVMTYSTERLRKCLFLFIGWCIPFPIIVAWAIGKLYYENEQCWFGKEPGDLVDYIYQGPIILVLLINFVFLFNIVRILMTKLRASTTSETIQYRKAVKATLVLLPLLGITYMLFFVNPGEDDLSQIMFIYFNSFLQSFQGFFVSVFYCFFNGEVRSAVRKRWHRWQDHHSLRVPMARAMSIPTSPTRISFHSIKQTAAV
In short: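 Efficacy and EC50 are referenced to 100 nM urocortin 2 as 100%, with cAMP measured as the 665/620 nm HTRF ratio after 1 h at room temperature. Compounds (0.5 mM DMSO stock, 16 twofold dilutions) acted 30 min at 37 °C on CRF2α-expressing TeloHEAC cells, buffer containing IBMX and 0% or 0.2% HSA.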

[2] = Buffer solubility by LC-UV, pH 7.4 phosphate and pH 4.5 acetate (Example 19.11); format: physicochemical; details: target 10 mg/mL
Procedure: As for example 15 above, also the chemical stability of representative examples of these FA modified peptides has been assessed, using LC-UV instead of light scattering. Solubility and chemical stability were studied in 100 mM phosphate buffer (pH 7.4) and 100 mM acetate buffer (pH 4.5). Test compound powders were dissolved in both buffers at a target concentration of 10 mg/mL and incubated for 1 hour at room temperature. After centrifugation at 2500 rcf for 15 minutes, […] of supernatant was diluted with […] of the incubation buffer and analyzed by LC-UV (Acquity UPLC-DAD, Waters). Solubility was calculated by comparing the peak area of the test compound in the buffer sample with the peak area of the same compound dissolved at 0.5 mg/ml in water:acetonitrile 1:1, 0.1% formic acid.

[3] = In vitro plasma stability, rat plasma (Example 19.11); format: in vitro ADME, Sprague Dawley rats; set-up: remaining at 2 h: dose or concentration left out as unconfirmed; details: male, Sprague Dawley, rat, plasma, 37° C.
Procedure: as §1

CRF1R receptor = molecular target: T3, CRF1R receptor (Homo sapiens, UniProt P34998); test: cAMP activity at anti-target CRF1R, CHO-K1 cell line clone 2 (Example 19.10); format: cell-based
T3 construct: host or cells: CHO-K1 clone 2
T3 sequence (P34998 24-415): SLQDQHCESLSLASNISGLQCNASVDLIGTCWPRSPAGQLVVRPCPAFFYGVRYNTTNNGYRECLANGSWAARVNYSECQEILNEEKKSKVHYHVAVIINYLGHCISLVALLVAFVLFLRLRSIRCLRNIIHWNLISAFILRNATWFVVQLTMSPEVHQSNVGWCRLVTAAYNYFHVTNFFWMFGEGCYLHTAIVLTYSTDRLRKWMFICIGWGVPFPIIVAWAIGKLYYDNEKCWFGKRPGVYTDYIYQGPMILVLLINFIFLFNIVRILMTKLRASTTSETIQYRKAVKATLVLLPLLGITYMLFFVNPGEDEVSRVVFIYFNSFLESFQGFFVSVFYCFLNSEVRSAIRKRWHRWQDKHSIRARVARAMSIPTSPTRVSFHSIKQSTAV
In short: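 The cAMP read-out used the same protocol as the previous assay, except that Sauvagine at 100 nM set the 100% activation control. Cells were CHO-K1 clone 2 overexpressing CRF1R, cultured in F12 medium with 10% FBS and G418 and stored frozen until use.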

EC50 (CRF2R): 0.06 nM
Structure (SMILES): CCCCCCCCCCCCCCCC(=O)N[C@@H](CCC(=O)NCCCC[C@H](NC(=O)[C@H](CC(C)C)NC(=O)CNC(=O)[C@@H](NC(=O)[C@@H]1CCCN1C(=O)[C@@H](NC(=O)[C@H](CC(=O)O)NC(=O)[C@H](CC(C)C)NC(=O)[C@H](CO)NC(=O)[C@H](CC(C)C)NC(=O)[C@@H](NC(=O)[C@@H](N)[C@@H](C)CC)C(C)C)C(C)C)[C@@H](C)CC)C(=O)N[C@@H](CCC(N)=O)C(=O)N[C@@H](CCCCN)C(=O)N[C@@H](CC(C)C)C(=O)N[C@@H](CC(C)C)C(=O)N[C@@H](CCCCN)C(=O)N[C@@H](CCC(N)=O)C(=O)N[C@@H](CCC(N)=O)C(=O)N[C@@H](CCCNC(=N)N)C(=O)N[C@@H](CCC(N)=O)C(=O)N[C@@H](CCCNC(=N)N)C(=O)N[C@@H](CCCCN)C(=O)N[C@@H](CCC(=O)O)C(=O)N[C@@H](CCCNC(=N)N)C(=O)N[C@@H](CCC(N)=O)C(=O)N[C@@H](CCC(N)=O)C(=O)N[C@@H](C)C(=O)N[C@@H](CCC(=O)O)C(=O)N[C@@H](CCCCN)C(=O)N[C@@H](CC(N)=O)C(=O)N[C@@H](C)C(=O)N[C@@H](CCCNC(=N)N)C(=O)N[C@H](C(=O)N[C@@H](CC(C)C)C(=O)N[C@@H](C)C(=O)N[C@@H](CCCNC(=N)N)C(=O)N[C@H](C(N)=O)C(C)C)[C@@H](C)CC)C(=O)O [SEQ ID NO: 6] (H-IVLSLDVPIGLK([γGlu-Palmitoyl])QKLLKQQRQRKERQQAEKNARILARV-NH2)

EC50 (CRF2R): 0.18 nM
Structure (SMILES): CCCCCCCCCCCCCCCC(=O)N[C@@H](CCC(=O)NCCCC[C@H](NC(=O)[C@@H](NC(=O)[C@H](CCCCN)NC(=O)[C@@H](NC(=O)[C@@H]1CCCN1C(=O)[C@@H](NC(=O)[C@H](CC(=O)O)NC(=O)[C@H](CC(C)C)NC(=O)[C@H](CO)NC(=O)[C@H](CC(C)C)NC(=O)[C@@H](NC(=O)[C@@H](N)Cc1ccccc1)[C@@H](C)O)C(C)C)[C@@H](C)O)[C@@H](C)CC)C(=O)N[C@@H](CCC(N)=O)C(=O)N[C@@H](CCCCN)C(=O)N[C@@H](CC(C)C)C(=O)N[C@@H](CC(C)C)C(=O)N[C@@H](CCCCN)C(=O)N[C@@H](CCC(N)=O)C(=O)N[C@@H](CCC(=O)O)C(=O)N[C@@H](CCCCN)C(=O)N[C@@H](CCC(N)=O)C(=O)N[C@@H](CCCCN)C(=O)N[C@@H](CCCCN)C(=O)N[C@@H](CCC(N)=O)C(=O)N[C@@H](CCCNC(=N)N)C(=O)N[C@@H](CCC(N)=O)C(=O)N[C@@H](CCCCN)C(=O)N[C@@H](C)C(=O)N[C@@H](CCCCN)C(=O)N[C@H](C(=O)N[C@@H](C)C(=O)N[C@@H](C)C(=O)N[C@@H](CCC(N)=O)C(=O)N[C@H](C(=O)N[C@@H](CC(C)C)C(=O)N[C@@H](C)C(=O)N[C@@H](CCC(N)=O)C(=O)N[C@H](C(N)=O)C(C)C)[C@@H](C)CC)[C@@H](C)O)C(=O)O [SEQ ID NO: 8] (H-FTLSLDVPTKIK([γGlu-Palmitoyl])QKLLKQEKQKKQRQKAKTAAQILAQV-NH2)

EC50 (CRF2R): 0.08 nM
Structure (SMILES): CCCCCCCCCCCCCCCC(=O)N[C@@H](CCC(=O)NCCCC[C@H](NC(=O)[C@@H](NC(=O)[C@H](CCCCN)NC(=O)[C@@H](NC(=O)[C@@H]1CCCN1C(=O)[C@@H](NC(=O)[C@H](CC(=O)O)NC(=O)[C@H](CC(C)C)NC(=O)[C@H](CO)NC(=O)[C@H](CC(C)C)NC(=O)[C@@H](NC(=O)[C@@H](N)Cc1ccccc1)[C@@H](C)O)C(C)C)[C@@H](C)O)[C@@H](C)CC)C(=O)N[C@@H](CCC(N)=O)C(=O)N[C@@H](CCCCN)C(=O)N[C@@H](CC(C)C)C(=O)N[C@@H](CC(C)C)C(=O)N[C@@H](CCCCN)C(=O)N[C@@H](CCC(N)=O)C(=O)N[C@@H](CCC(=O)O)C(=O)N[C@@H](CCCCN)C(=O)N[C@@H](CCC(N)=O)C(=O)N[C@@H](CCCCN)C(=O)N[C@@H](CCCCN)C(=O)N[C@@H](CCC(N)=O)C(=O)N[C@@H](CCCNC(=N)N)C(=O)N[C@@H](CCC(N)=O)C(=O)N[C@@H](CCCCN)C(=O)N[C@@H](C)C(=O)N[C@@H](CCCCN)C(=O)N[C@H](C(=O)N[C@@H](C)C(=O)N[C@@H](CCCCN)C(=O)N[C@@H](CCC(N)=O)C(=O)N[C@H](C(=O)N[C@@H](CC(C)C)C(=O)N[C@@H](CCC(=O)O)C(=O)N[C@@H](CCC(N)=O)C(=O)N[C@H](C(N)=O)C(C)C)[C@@H](C)CC)[C@@H](C)O)C(=O)O [SEQ ID NO: 9] (H-FTLSLDVPTKIK([γGlu-Palmitoyl])QKLLKQEKQKKQRQKAKTAKQILEQV-NH2)

remaining at 2 h [1]: 80%
EC50 (human CRF2α receptor): 0.82 nM
solubility at 1 h ([2]; pH 4.5, 100 mM acetate buffer): 8600 µg/mL (≈ 1770 µM)
solubility at 1 h ([2]; pH 7.4, 100 mM phosphate buffer): 100 µg/mL (≈ 20.6 µM)
remaining at 2 h [3]: 84%
EC50 (CRF1R receptor; 0% HSA, CRF1R CHO-K1 clone 2, read-out: EC50 [nM] 0% HSA): > 100 nM
Emax (CRF1R receptor; 100% = Sauvagine at 100 nM, CRF1R CHO-K1 clone 2): 8.77%
EC50 (CRF1R receptor; Table 20 side-to-side comparison, read-out: CRF1 EC50): > 100 nM
CRF1/CRF2 ratio (CRF1R receptor; ratio of CRF1 EC50 to CRF2 EC50): >500
Structure (SMILES): CC[C@H](C)[C@H](N)C(=O)N[C@H](C(=O)N[C@@H](CC(C)C)C(=O)N[C@@H](CO)C(=O)N[C@@H](CC(C)C)C(=O)N[C@@H](CC(=O)O)C(=O)N[C@@H](C(=O)N1CCC[C@H]1C(=O)N[C@H](C(=O)NCC(=O)N[C@@H](CC(C)C)C(=O)N[C@@H](CCCCNC(=O)CC[C@H](NC(=O)CCCCCCCCCCCCCCC(=O)O)C(=O)O)C(=O)N[C@@H](CCC(N)=O)C(=O)N[C@H](C(=O)N[C@@H](CC(C)C)C(=O)N[C@@H](CC(C)C)C(=O)N[C@@H](CCCCN)C(=O)N[C@@H](CCC(N)=O)C(=O)N[C@@H](CCC(=O)O)C(=O)N[C@@H](CCCNC(=N)N)C(=O)N[C@@H](CCC(N)=O)C(=O)N[C@@H](CCCCN)C(=O)N[C@@H](CCCCN)C(=O)NC(C)(C)C(=O)N[C@@H](CCCNC(=N)N)C(=O)N[C@@H](CCC(=O)O)C(=O)N[C@@H](CCC(N)=O)C(=O)N[C@@H](C)C(=O)N[C@@H](CCC(=O)O)C(=O)N[C@H](C(=O)N[C@@H](CC(N)=O)C(=O)N[C@@H](CCCCN)C(=O)N[C@@H](CCCNC(=N)N)C(=O)N[C@H](C(=O)N[C@@H](CC(C)C)C(=O)N[C@@H](CCC(=O)O)C(=O)N[C@@H](CCCNC(=N)N)C(=O)N[C@H](C(N)=O)C(C)C)[C@@H](C)CC)[C@@H](C)O)[C@@H](C)CC)[C@@H](C)CC)C(C)C)C(C)C [compound 193] (H-IVLSLD[dV]PIGLK([γGlu-C16 diacid])QILLKQERQKK[Aib]REQAETNKRILERV-NH2)
